Measurements as given in patent publication US10426773B2, “Systems pharmacology for treating ocular disorders” (Case Western Reserve Univeristy, priority 2011, dated 2019).
Entries after “also recorded” stand apart in the source; their conditions may differ.

Tests used:
[1] = Quantification of selected drugs in mouse serum and eye by LC-MS; format: in vivo, C57BL/6J WT mice
Description: C57BL/6J WT mice at 6 weeks of age (Jackson Laboratory) were treated with DOX, GUB, or SQ at a single dose of 10, 2, and 0.5 mg per kilogram, respectively. The compound was dissolved in 50% DMSO in PBS (137 mM NaCl, 2.7 mM KCl, 0.67 mM […]). Next, to precipitate excess proteins, 0.3 ml of methanol was added to both the eye homogenate and 0.1 ml of serum. Samples were vortexed for 30 s followed by centrifugation for 15 min at 16,000 g. Clear supernatants were collected and used directly for LC-MS analysis. 2HPO4/KH2PO4, pH 7.4) and administrated by intraperitoneal injection. Thirty minutes later the mice were anesthetized. Blood samples were collected using the technique of cardiac puncture and subsequently centrifuged (5 min, 16,000 g) to collect serum. Prior to harvesting eyes, mice were intracardially perfused with PBS to minimalize blood contamination. Eye balls were immediately homogenized in 0.1 ml of PBS. The homogenate and serum samples were spiked with 100 pmols of internal standard (IS) (parazosin—2-[4-(2-furoyl)piperazin-1-yl]-6,7-dimethoxyquinazolin-4-amine (Sigma Aldrich) or clenbuterol—(RS)-1-(4-Amino-3,5-dichlorophenyl)-2-(tert-butylamino)ethanol (Sigma Aldrich)) for DOX, GUB or SQ quantification, respectively.
Mass spectrometry (MS) based detection and quantification of DOX, GUB, and SQ was performed with a L×Q linear ion trap mass spectrometer (Thermo Scientific) equipped with an electrospray ionization (ESI) interface and coupled to Agilent 1100 HPLC (Agilent Technologies). Separation of drugs and the internal standards was achieved on a reverse phase C18 Phenomenex HPLC column (250×4.60 mm; 5 μm) by a linear gradient of to 100% acetonitrile in water within 15 min at flow rate of 0.5 ml/min. All solvents contained 0.1% formic acid (v/v). The HPLC effluent was sprayed into the MS via an ESI probe operated in the positive ionization mode. Parameters of ionization and detection were tuned with synthetic standards for the drugs to achieve the highest possible sensitivity. Dox and parazosin (internal standard) were detected by selected reaction monitoring (SRM) using m/z 452.2→344.2 and 384.2→247.1 transitions whereas GUB, SQ and their corresponding IS, clenbuterol, was by fragmentation at m/z 231.1→214.0, 206.1→136.0, and 277.1→259.1, respectively. The elution times for DOX, GUB, and SQ were ˜12.8, 12.3, and 10.8 min, respectively. Both internal standards eluted at 12.0 min (FIG. 34). Calibration curves were calculated based on the linear relationship between ratios of SRM ion intensity peak area corresponding to the selected drug and the IS vs. molar ratios of the compounds in the range of 20-500 pmol (FIG. 34H).

Abca4−/−Rdh8−/− mice = experiment: Bright light-induced retinal degeneration in Abca4−/−Rdh8−/− mice, ERG retinal function; conditions: pretreatment before light 10,000 lux 30 min; ERG 7 days to 2 weeks after; listed as DOX

## COc1cc2nc(N3CCN(C(=O)C4COc5ccccc5O4)CC3)nc(N)c2cc1OC.CS(=O)(=O)O (stereo not shown) [Doxazosin]
[1]; 30 min after a single ip dose: DOX 10, GUB 2, SQ 0.5 mg per kilogram, mice perfused with PBS
  Eye ± SD: 11.0 ± 1.7 pmol/eye
[1]; C57BL/6J, mouse, serum, intraperitoneal, 30 min after a single ip dose: DOX 10, GUB 2, SQ 0.5 mg per kilogram, read-out: Serum ± SD
  concentration at 30 min: 465 ± 128 nM
[1]; eye volume taken as about 0.1 mL
  amount in eye compared with level in 0.1 mL of serum: 5 times lower
Abca4−/−Rdh8−/− mice
  retinal function by ERG (a-wave and b-wave amplitudes): substantial preservation of the scotopic ERG response; also recorded: substantial preservation of this response
